Test system: Ba
Experiment: Phase 2a study: urinary Ba (MicroVue Ba Enzyme Immunoassay)
Assay type: in vivo, human
Conditions: 100 mg TID

CC(=O)c1nn(CC(=O)N2C[C@H](F)C[C@H]2C(=O)Nc2cccc(Br)n2)c2ccc(-c3cnc(C)nc3)cc12 [Compound 1, (2S,4R)-1-(2-(3-acetyl-5-(2-methylpyrimidin-5-yl)-1H-indazol-1-yl)acetyl)-N-(6-bromopyridin-2-yl)-4-fluoropyrrolidine-2-carboxamide]
Ba/ALB (Patient A, Day 1/0 Hour): 22.1 ng/mg | Ba/Cr (Patient A, Day 1/0 Hour): 5.7 µg/mmol | Urine Ba (Patient A, Day 1/0 Hour): 47.1 ng/mL | Ba/ALB (Patient A, Day 4): 8.4 ng/mg | Ba/Cr (Patient A, Day 4): 1.8 µg/mmol | Urine Ba (Patient A, Day 4): 14.7 ng/mL | Ba/ALB (Patient A, Day 7/0 Hour): 7.5 ng/mg | Ba/Cr (Patient A, Day 7/0 Hour): 1.8 µg/mmol | Urine Ba (Patient A, Day 7/0 Hour): 11.6 ng/mL | Ba/ALB (Patient A, Day 10): 6.1 ng/mg | Ba/Cr (Patient A, Day 10): 1.4 µg/mmol | Urine Ba (Patient A, Day 10): 8.6 ng/mL | Ba/ALB (Patient A, Day 15 Taper): 11.4 ng/mg | Ba/Cr (Patient A, Day 15 Taper): 1.6 µg/mmol | Urine Ba (Patient A, Day 15 Taper): 11.9 ng/mL | Ba/ALB (Patient A, Day 16 Taper): 16.3 ng/mg | Ba/Cr (Patient A, Day 16 Taper): 2.3 µg/mmol | Urine Ba (Patient A, Day 16 Taper): 17.4 ng/mL | Ba/ALB (Patient A, Day 17 Taper): 18.6 ng/mg | Ba/Cr (Patient A, Day 17 Taper): 2.1 µg/mmol | Urine Ba (Patient A, Day 17 Taper): 21.2 ng/mL | Ba/ALB (Patient A, Day 21 Taper): 65.5 ng/mg | Ba/Cr (Patient A, Day 21 Taper): 9.2 µg/mmol | Urine Ba (Patient A, Day 21 Taper): 79.8 ng/mL | Ba/ALB (Patient A, Follow-Up Day 24): 83.3 ng/mg | Ba/Cr (Patient A, Follow-Up Day 24): 11.5 µg/mmol | Urine Ba (Patient A, Follow-Up Day 24): 115.3 ng/mL | Ba/ALB (Patient A, Follow-Up Day 28): 77.1 ng/mg | Ba/Cr (Patient A, Follow-Up Day 28): 10.2 µg/mmol | Urine Ba (Patient A, Follow-Up Day 28): 100.8 ng/mL | Ba/ALB (Patient A, Follow-Up Day 49): 26.5 ng/mg | Ba/Cr (Patient A, Follow-Up Day 49): 3.8 µg/mmol | Urine Ba (Patient A, Follow-Up Day 49): 16.5 ng/mL | Ba/ALB (Patient A, Screen): 15.0 ng/mg | Ba/Cr (Patient A, Screen): 3.4 µg/mmol | Urine Ba (Patient A, Screen): 28.3 ng/mL | Ba/ALB (Patient B, Day 1/0 Hour): 225 ng/mg | Ba/Cr (Patient B, Day 1/0 Hour): 129.9 µg/mmol | Urine Ba (Patient B, Day 1/0 Hour): 793 ng/mL | Ba/ALB (Patient B, Day 4): 47 ng/mg | Ba/Cr (Patient B, Day 4): 12.4 µg/mmol | Urine Ba (Patient B, Day 4): 158 ng/mL | Ba/ALB (Patient B, Day 7/0 Hour): 41 ng/mg | Ba/Cr (Patient B, Day 7/0 Hour): 10.2 µg/mmol | Urine Ba (Patient B, Day 7/0 Hour): 149 ng/mL | Ba/ALB (Patient B, Day 10): 28 ng/mg | Ba/Cr (Patient B, Day 10): 7.0 µg/mmol | Urine Ba (Patient B, Day 10): 53 ng/mL | Ba/ALB (Patient B, Day 14): 54 ng/mg | Ba/Cr (Patient B, Day 14): 14.2 µg/mmol | Urine Ba (Patient B, Day 14): 238 ng/mL | Ba/ALB (Patient B, Day 15 Taper): 58 ng/mg | Ba/Cr (Patient B, Day 15 Taper): 19.0 µg/mmol | Urine Ba (Patient B, Day 15 Taper): 209 ng/mL | Ba/ALB (Patient B, Day 16 Taper): 77 ng/mg | Ba/Cr (Patient B, Day 16 Taper): 25.2 µg/mmol | Urine Ba (Patient B, Day 16 Taper): 318 ng/mL | Ba/ALB (Patient B, Day 17 Taper): 55 ng/mg | Urine Ba (Patient B, Day 17 Taper): 164 ng/mL | Ba/ALB (Patient B, Day 21 Taper): 43 ng/mg | Ba/Cr (Patient B, Day 21 Taper): 15.9 µg/mmol | Urine Ba (Patient B, Day 21 Taper): 129 ng/mL | Ba/ALB (Patient B, Follow-Up Day 24): 87 ng/mg | Ba/Cr (Patient B, Follow-Up Day 24): 41.1 µg/mmol | Urine Ba (Patient B, Follow-Up Day 24): 251 ng/mL | Ba/ALB (Patient B, Follow-Up Day 28): 65 ng/mg | Ba/Cr (Patient B, Follow-Up Day 28): 24.6 µg/mmol | Urine Ba (Patient B, Follow-Up Day 28): 175 ng/mL
